Source: PubChem BioAssay AID1963853 (Molecular Pharmacology Branch, DTP, NCI, 2024)

System: 266295-075-R-J1-PDC spheroid viability
Test: Anticancer human tumor 266295-075-R-J1-PDC patient-derived head and neck squamous carcinoma cell line growth inhibition [POLQ]
Settings: spheroids with HUVEC and MSC; for IC50: curve of first compound; for viability, T/C: stronger effect = lower value
How it was run: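 Complex spheroid viability model combining PDC tumour cells with endothelial (HUVEC) and MSC stromal cells. Novobiocin, ART-558 or RP6685 were tested singly and in combination with standard and investigational anticancer drugs. Each was titrated in half-log steps from near clinical Cmax, or from 10 microM where Cmax was unknown.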
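Further: spheroids exposed to compounds for seven days before readout.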

Cn1ncnc1[C@H]1c2n[nH]c(=O)c3cc(F)cc(c23)N[C@@H]1c1ccc(F)cc1 + Nc1ccc(C#CCN(C(=O)Cc2ncc(C(F)(F)F)cc2C(F)(F)F)c2ccc(F)cc2)nn1
IC50 (second compound 0.0316 µM): > 100 nM | IC50 (second compound 0.1 µM): > 100 nM | IC50 (second compound 0.316 µM): > 100 nM | IC50 (second compound 1 µM): > 100 nM | IC50 (second compound 3.16 µM): > 100 nM | IC50 (second compound 10 µM): > 100 nM | viability, T/C (second compound 0.0316 µM, first compound 0.000316 µM): 86.1% | viability, T/C (second compound 0.0316 µM, first compound 0.001 µM): 95.8% | viability, T/C (second compound 0.0316 µM, first compound 0.00316 µM): 89.1% | viability, T/C (second compound 0.0316 µM, first compound 0.01 µM): 92.1% | viability, T/C (second compound 0.0316 µM, first compound 0.0316 µM): 79.7% | viability, T/C (second compound 0.0316 µM, first compound 0.1 µM): 85.3% | viability, T/C (second compound 0.1 µM, first compound 0.000316 µM): 97.9% | viability, T/C (second compound 0.1 µM, first compound 0.001 µM): 107% | viability, T/C (second compound 0.1 µM, first compound 0.00316 µM): 91.8% | viability, T/C (second compound 0.1 µM, first compound 0.01 µM): 101% | viability, T/C (second compound 0.1 µM, first compound 0.0316 µM): 88.5% | viability, T/C (second compound 0.1 µM, first compound 0.1 µM): 101% | viability, T/C (second compound 0.316 µM, first compound 0.000316 µM): 110% | viability, T/C (second compound 0.316 µM, first compound 0.001 µM): 114% | viability, T/C (second compound 0.316 µM, first compound 0.00316 µM): 92.1% | viability, T/C (second compound 0.316 µM, first compound 0.01 µM): 82.7% | viability, T/C (second compound 0.316 µM, first compound 0.0316 µM): 93% | viability, T/C (second compound 0.316 µM, first compound 0.1 µM): 99.4% | viability, T/C (second compound 1 µM, first compound 0.000316 µM): 105% | viability, T/C (second compound 1 µM, first compound 0.001 µM): 96.3% | viability, T/C (second compound 1 µM, first compound 0.00316 µM): 78.6% | viability, T/C (second compound 1 µM, first compound 0.01 µM): 99% | viability, T/C (second compound 1 µM, first compound 0.0316 µM): 105% | viability, T/C (second compound 1 µM, first compound 0.1 µM): 69.7% | viability, T/C (second compound 3.16 µM, first compound 0.000316 µM): 103% | viability, T/C (second compound 3.16 µM, first compound 0.001 µM): 101% | viability, T/C (second compound 3.16 µM, first compound 0.00316 µM): 98.5% | viability, T/C (second compound 3.16 µM, first compound 0.01 µM): 83.8% | viability, T/C (second compound 3.16 µM, first compound 0.0316 µM): 87.9% | viability, T/C (second compound 3.16 µM, first compound 0.1 µM): 87.6% | viability, T/C (second compound 10 µM, first compound 0.000316 µM): 91.6% | viability, T/C (second compound 10 µM, first compound 0.001 µM): 103% | viability, T/C (second compound 10 µM, first compound 0.00316 µM): 110% | viability, T/C (second compound 10 µM, first compound 0.01 µM): 104% | viability, T/C (second compound 10 µM, first compound 0.0316 µM): 88.5% | viability, T/C (second compound 10 µM, first compound 0.1 µM): 122%
